These are literature values, as cited in US7205292B2, “CGRP receptor antagonists” (Merck & Co., Inc., priority 2003, dated 2007).

Series [1] relates to CGRP. The settings on record: marmoset, electrical stimulation of the trigeminal ganglion.
Series [2] has as its system CGRP. To be noted: rats, electrical stimulation of the dura mater, prior administration.
Series [3] relates to CGRP. The settings on record: rat, trigeminal ganglion stimulation.

On to `NCCCC[C@H](NC(=O)[C@@H](Cc1cc(Br)c(O)c(Br)c1)NC(=O)N1CCC(N2Cc3ccccc3NC2=O)CC1)C(=O)N1CCN(c2ccncc2)CC1` [BIBN4096BS], for which the “effect on increase in facial blood flow” value in the series with CGRP [1] is “blocked”. Regarding CGRP(8-37), in the series on CGRP [2], the “effect on increased diameter of the middle meningeal artery” value is given as “blocked”. The “effect on increased facial blood flow” value in the series on CGRP [3] is recorded as “inhibited”.
